Assay results published in PMC6934184, “Selective DNA-PKcs inhibition extends the therapeutic index of localized radiotherapy and chemotherapy” (The Journal of Clinical Investigation, 2019).

Biological target: T1, ALK C1156Y (Homo sapiens, UniProt Q9UM73, C1156Y)
T1 construct: purchased Thermo Fisher Scientific (Life Technologies) SelectScreen
Assay: SelectScreen LanthaScreen
Assay type: binding
Details: read-out: % displacement
Method in brief: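 Percent values come from Thermo SelectScreen profiling of NU5455, combining activity and binding assays. CSF1R was run in Z'LYTE format at Km app ATP, and CAMK1 in Adapta format with ATP listed at 10.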

T1 sequence (Q9UM73 19-1620 C1156Y): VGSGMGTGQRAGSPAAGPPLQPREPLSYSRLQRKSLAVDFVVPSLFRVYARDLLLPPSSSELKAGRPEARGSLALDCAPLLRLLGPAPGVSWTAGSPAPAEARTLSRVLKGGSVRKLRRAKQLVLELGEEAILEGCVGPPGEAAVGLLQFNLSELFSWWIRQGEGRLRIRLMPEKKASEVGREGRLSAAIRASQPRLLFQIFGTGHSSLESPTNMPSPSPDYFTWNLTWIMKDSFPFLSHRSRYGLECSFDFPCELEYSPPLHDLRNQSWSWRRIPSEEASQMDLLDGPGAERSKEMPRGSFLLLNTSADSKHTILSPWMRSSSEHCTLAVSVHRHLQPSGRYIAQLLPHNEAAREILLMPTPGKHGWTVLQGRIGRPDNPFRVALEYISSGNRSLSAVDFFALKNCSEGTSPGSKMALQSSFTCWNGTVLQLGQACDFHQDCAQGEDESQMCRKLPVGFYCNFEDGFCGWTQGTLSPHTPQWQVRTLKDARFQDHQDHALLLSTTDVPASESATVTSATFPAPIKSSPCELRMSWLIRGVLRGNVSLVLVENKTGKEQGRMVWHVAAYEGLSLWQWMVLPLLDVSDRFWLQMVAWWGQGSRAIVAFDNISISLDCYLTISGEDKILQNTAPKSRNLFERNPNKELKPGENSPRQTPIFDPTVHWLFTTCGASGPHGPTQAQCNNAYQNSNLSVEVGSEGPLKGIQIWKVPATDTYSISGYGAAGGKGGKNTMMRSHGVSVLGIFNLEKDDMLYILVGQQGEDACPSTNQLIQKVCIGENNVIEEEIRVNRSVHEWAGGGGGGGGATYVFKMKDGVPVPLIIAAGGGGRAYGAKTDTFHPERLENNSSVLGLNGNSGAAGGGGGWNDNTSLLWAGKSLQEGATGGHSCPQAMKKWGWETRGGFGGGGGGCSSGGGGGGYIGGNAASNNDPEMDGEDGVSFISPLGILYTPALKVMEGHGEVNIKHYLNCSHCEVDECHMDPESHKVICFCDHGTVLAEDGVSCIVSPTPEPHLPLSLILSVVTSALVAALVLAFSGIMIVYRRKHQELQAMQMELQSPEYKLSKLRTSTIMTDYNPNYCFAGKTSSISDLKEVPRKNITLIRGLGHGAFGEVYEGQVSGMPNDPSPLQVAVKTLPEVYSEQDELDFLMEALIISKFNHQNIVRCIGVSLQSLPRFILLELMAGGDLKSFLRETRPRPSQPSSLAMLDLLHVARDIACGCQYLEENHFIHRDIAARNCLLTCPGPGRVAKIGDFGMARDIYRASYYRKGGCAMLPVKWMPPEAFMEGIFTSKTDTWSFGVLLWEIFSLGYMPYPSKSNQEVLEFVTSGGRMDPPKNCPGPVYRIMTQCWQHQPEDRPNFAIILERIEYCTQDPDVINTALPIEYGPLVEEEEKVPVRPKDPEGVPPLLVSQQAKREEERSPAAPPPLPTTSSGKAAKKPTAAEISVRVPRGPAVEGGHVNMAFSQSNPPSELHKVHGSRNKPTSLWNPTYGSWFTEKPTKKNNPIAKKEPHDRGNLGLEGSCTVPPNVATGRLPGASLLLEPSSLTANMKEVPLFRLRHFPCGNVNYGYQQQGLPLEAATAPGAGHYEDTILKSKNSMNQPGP

With CN(C(=O)CN1CCOCC1)c1ccc2sc3c(-c4cccc5c(=O)cc(N6CC7CCC(C6)O7)oc45)cccc3c2c1 [NU5455] the inhibition at 1 µM was 0.6%.
